From ChEMBL document CHEMBL3885861, “Open TG-GATES”

Species: Rattus norvegicus
Experiment: Open TG-GATES - Regimen: Single
Type: toxicity, organism-based, Sprague-Dawley
Design: regimen Single, gender Male, age 6 weeks
Settings: in vivo, po, 100 mg/kg, route gavage, dose level Middle; for APTT / Bas / Eos / Fbg / Hb / Ht / Lym / MCH / MCHC / MCV / Mono / Neu / PT / Plat / RBC / Ret / WBC: tissue Blood; for KIDNEY_L / KIDNEY_R / KIDNEY_TOTAL: tissue Kidney; for LIVER: tissue Liver; for ALP / ALT / AST / BUN / CRE / Ca / Cl / DBIL / GLC / IP / K / LDH / Na / PL / RALB / TBIL / TC / TG / TP / gamma-GTP: tissue Plasma

In the case of `COc1cc([C@@H]2c3cc4c(cc3[C@@H](O[C@@H]3O[C@@H]5CO[C@@H](C)O[C@H]5[C@H](O)[C@H]3O)[C@H]3COC(=O)[C@H]23)OCO4)cc(OC)c1O` [ETOPOSIDE], the TERMINAL_BW (3 h) is reported as 196.5 g, the APTT (3 h) is reported as 17 s and the Bas (3 h) is reported as 0%. For the same compound, the Eos (3 h) was 1%, the Fbg (3 h) was 184.4 mg/dL and the Hb (3 h) was 13.6 g/dL. It also gave a Ht (3 h) of 40.5%, a Lym (3 h) of 78.6% and an MCH (3 h) of 21.7 pg. For the same compound, the MCHC (3 h) was 33.7%, the MCV (3 h) was 64.4 fL and the Mono (3 h) was 8.2%. The Neu (3 h) was 12.2%, the PT (3 h) was 12.3 s and the Plat (3 h) was 118 x10_4/uL. For the same compound, the RBC (3 h) was 628.4 x10_4/ul, the Ret (3 h) was 9.8% and the WBC (3 h) was 104.2 x10_2/uL. For the same compound, the KIDNEY_L (3 h) was 0.9 g, the KIDNEY_R (3 h) was 0.9 g and the KIDNEY_TOTAL (3 h) was 1.8 g. It also gave an LIVER (3 h) of 9.1 g, an ALP (3 h) of 1074.8 IU/L and an ALT (3 h) of 36 IU/L. It also gave an AST (3 h) of 69.4 IU/L, a BUN (3 h) of 13.8 mg/dL and a CRE (3 h) of 0.5 mg/dL. The Ca (3 h) was 10.6 mg/dL, the Cl (3 h) was 103.8 meq/L and the DBIL (3 h) was 0.026 mg/dL. The GLC (3 h) was 193 mg/dL, the IP (3 h) was 9.6 mg/dL and the K (3 h) was 4.3 meq/L. The LDH (3 h) was 111 IU/L, the Na (3 h) was 141.6 meq/L and the PL (3 h) was 137.2 mg/dL. It also gave an RALB (3 h) of 3.4 g/dL, a TBIL (3 h) of 0.3 mg/dL and a TC (3 h) of 78.6 mg/dL. It also gave a TG (3 h) of 45.4 mg/dL, a TP (3 h) of 5.2 g/dL and a gamma-GTP (3 h) of 1.4 IU/L. It also gave a TERMINAL_BW (6 h) of 198.5 g, an APTT (6 h) of 17.4 s and a Bas (6 h) of 0%. The Eos (6 h) was 1%, the Fbg (6 h) was 198 mg/dL and the Hb (6 h) was 13.6 g/dL. It also gave a Ht (6 h) of 40.5%, a Lym (6 h) of 76.6% and an MCH (6 h) of 21.9 pg. It also gave an MCHC (6 h) of 33.7%, an MCV (6 h) of 65.1 fL and a Mono (6 h) of 9.8%. For the same compound, the Neu (6 h) was 13%, the PT (6 h) was 11.9 s and the Plat (6 h) was 110.3 x10_4/uL. The RBC (6 h) was 622 x10_4/ul, the Ret (6 h) was 10% and the WBC (6 h) was 69.6 x10_2/uL. The KIDNEY_L (6 h) was 0.9 g, the KIDNEY_R (6 h) was 0.9 g and the KIDNEY_TOTAL (6 h) was 1.9 g. It also gave an LIVER (6 h) of 8.9 g, an ALP (6 h) of 933.8 IU/L and an ALT (6 h) of 29.4 IU/L. For the same compound, the AST (6 h) was 62.2 IU/L, the BUN (6 h) was 11.4 mg/dL and the CRE (6 h) was 0.6 mg/dL. The Ca (6 h) was 10.7 mg/dL, the Cl (6 h) was 105 meq/L and the DBIL (6 h) was 0.02 mg/dL. It also gave a GLC (6 h) of 196.2 mg/dL, an IP (6 h) of 10.5 mg/dL and a K (6 h) of 4.7 meq/L. It also gave an LDH (6 h) of 98.4 IU/L, a Na (6 h) of 141.6 meq/L and a PL (6 h) of 137.8 mg/dL. It also gave an RALB (6 h) of 3.3 g/dL, a TBIL (6 h) of 0.4 mg/dL and a TC (6 h) of 78 mg/dL. It also gave a TG (6 h) of 40.2 mg/dL, a TP (6 h) of 5.3 g/dL and a gamma-GTP (6 h) of 0.8 IU/L. For the same compound, the TERMINAL_BW (9 h) was 197 g, the APTT (9 h) was 16.9 s and the Bas (9 h) was 0%. It also gave an Eos (9 h) of 1%, a Fbg (9 h) of 206.8 mg/dL and a Hb (9 h) of 13 g/dL. It also gave a Ht (9 h) of 38.8%, a Lym (9 h) of 77.8% and an MCH (9 h) of 21.5 pg. The MCHC (9 h) was 33.5%, the MCV (9 h) was 64.3 fL and the Mono (9 h) was 6.8%. The Neu (9 h) was 14.6%, the PT (9 h) was 11.2 s and the Plat (9 h) was 109 x10_4/uL. It also gave an RBC (9 h) of 604.2 x10_4/ul, a Ret (9 h) of 8.2% and a WBC (9 h) of 72.5 x10_2/uL. For the same compound, the KIDNEY_L (9 h) was 0.9 g, the KIDNEY_R (9 h) was 1 g and the KIDNEY_TOTAL (9 h) was 1.9 g. It also gave an LIVER (9 h) of 8.5 g, an ALP (9 h) of 842.6 IU/L and an ALT (9 h) of 33.4 IU/L. It also gave an AST (9 h) of 63.6 IU/L, a BUN (9 h) of 12.8 mg/dL and a CRE (9 h) of 0.5 mg/dL. It also gave a Ca (9 h) of 10.4 mg/dL, a Cl (9 h) of 105.8 meq/L and a DBIL (9 h) of 0.048 mg/dL. For the same compound, the GLC (9 h) was 199 mg/dL, the IP (9 h) was 10.6 mg/dL and the K (9 h) was 4.6 meq/L. For the same compound, the LDH (9 h) was 78.4 IU/L, the Na (9 h) was 143.2 meq/L and the PL (9 h) was 114 mg/dL. The RALB (9 h) was 3.5 g/dL, the TBIL (9 h) was 0.4 mg/dL and the TC (9 h) was 67.6 mg/dL. The TG (9 h) was 27.6 mg/dL, the TP (9 h) was 5.4 g/dL and the gamma-GTP (9 h) was 1.6 IU/L. The TERMINAL_BW (24 h) was 207.9 g, the APTT (24 h) was 16 s and the Bas (24 h) was 0%. The Eos (24 h) was 1%, the Fbg (24 h) was 206 mg/dL and the Hb (24 h) was 13.4 g/dL. The Ht (24 h) was 39.8%, the Lym (24 h) was 86.4% and the MCH (24 h) was 21.4 pg. It also gave an MCHC (24 h) of 33.7%, an MCV (24 h) of 63.4 fL and a Mono (24 h) of 4.8%. The Neu (24 h) was 8%, the PT (24 h) was 11.7 s and the Plat (24 h) was 113.3 x10_4/uL. The RBC (24 h) was 628.4 x10_4/ul, the Ret (24 h) was 7.4% and the WBC (24 h) was 74.6 x10_2/uL. The KIDNEY_L (24 h) was 1 g, the KIDNEY_R (24 h) was 1 g and the KIDNEY_TOTAL (24 h) was 2 g. The LIVER (24 h) was 9.3 g, the ALP (24 h) was 999.2 IU/L and the ALT (24 h) was 30.4 IU/L. It also gave an AST (24 h) of 64.8 IU/L, a CRE (24 h) of 0.5 mg/dL and a Ca (24 h) of 10.9 mg/dL. It also gave a Cl (24 h) of 104.8 meq/L, a DBIL (24 h) of 0.028 mg/dL and a GLC (24 h) of 192.4 mg/dL. It also gave an IP (24 h) of 9.1 mg/dL, a K (24 h) of 5 meq/L and an LDH (24 h) of 94.6 IU/L. It also gave a Na (24 h) of 140.6 meq/L, a PL (24 h) of 134.4 mg/dL and an RALB (24 h) of 3.6 g/dL. It also gave a TBIL (24 h) of 0.3 mg/dL, a TC (24 h) of 78.2 mg/dL and a TG (24 h) of 60 mg/dL. The TP (24 h) was 5.5 g/dL and the gamma-GTP (24 h) was 1.2 IU/L.
